Results on 25 molecules are retold here after patent US8546427B2, “Tetrahydroquinoline derivatives” (Hoffmann-La Roche Inc., priority 2010, dated 2013).

The experiment relates to AMP-activated protein kinase (AMPK). As to the kind of experiment: ADP Quest assay for AMPK activators. Also noted: key: fold AMPK activation at 30 μM activator vs none. Conditions: fold of AMPK activation to phosphorylate SAMS peptide without and with an activator at the concentration of 30 μM. The experiment is classed as biochemical. The procedure:
This method evaluates AMP-activated protein kinase (AMPK) activity through detecting the accumulation of ADP product using an ADP Quest kit and determining the E30 values of the small molecular AMPK activators. ADP Quest kit (DiscoveRx, Fremont, Calif.) is stored at −20° C. before use. Before an experiment, thaw the kit (include assay buffer, ADP standard solution, reagent A and reagent B) and equilibrate to room temperature. Dispense the ADP Quest reagents into single-use aliquots and store at −20° C. The compound concentrations typically range from 0 μM to 100 μM by 2-fold dilution. AMP concentrations range from 0.98 μM to 1 mM as the reference control. In an assay, thaw and equilibrate the assay buffer, reagent A and reagent B to room temperature for 30 minutes prior to use. Mix ATP, SAMS peptide substrate and compound, and place them into the 384-well assay plate. Add reagent A and B based on the assay kit protocol. Incubate the assay plate at room temperature for 30 minutes after addition the mixture followed by the addition of AMPK protein (Invitrogen, CA) to initiate the AMPK phosphorylation reaction. At the same time, reactions with AMPK activator AMP in the absence of enzyme is included as blank control. The reaction fluorescence signal is monitored and recorded on Envision in kinetic mode with the excitation wavelength of 530 nm and emission wavelength of 590 nm. The E30 value, defined as the fold of AMPK activation to phosphorylate SAMS peptide without and with an activator at the concentration of 30 μM, is calculated and analyzed using Prism 5.0.
Molecule `CC(C)(Nc1cccc(C2CC(C)(C)c3cc(Cl)ccc3N2)c1)C(=O)O` (stereo not shown) [Example 1, 2-[3-(6-Chloro-4,4-dimethyl-1,2,3,4-tetrahydro-quinolin-2-yl)-phenylamino]-2-methyl-propionic acid] showed an E30 of 3.30.

`CC1(C)CC(c2cccc(NC3(C(=O)O)CC3)c2)Nc2ccc(Cl)cc21` (stereo not shown) [Example-2, 1-[3-(6-Chloro-4,4-dimethyl-1,2,3,4-tetrahydro-quinolin-2-yl)-phenylamino]-cyclopropanecarboxylic acid] yielded an E30 of 2.63.

Turning to `CC(C)(Nc1cccc(C2CC(C)(C)c3cc(C#N)ccc3N2)c1)C(=O)O` (stereo not shown) [Example-3, 2-[3-(6-Cyano-4,4-dimethyl-1,2,3,4-tetrahydro-quinolin-2-yl)-phenylamino]-2-methyl-propionic acid], the E30 worked out at 2.88.

As for `CC1(C)CC(c2cccc(NC3(C(=O)O)CC3)c2)Nc2ccc(C#N)cc21` (stereo not shown) [Example-4, 1-[3-(6-Cyano-4,4-dimethyl-1,2,3,4-tetrahydro-quinolin-2-yl)-phenylamino]-cyclopropanecarboxylic acid], the E30 is on record as 2.43.

The molecule `CC1(C)CC(c2cccc(NC3(C(=O)O)CC3)c2)Nc2c(C(=O)O)cccc21` (stereo not shown) [Example-5, 2-[3-(1-Carboxy-cyclopropylamino)-phenyl]-4,4-dimethyl-1,2,3,4-tetrahydro-quinoline-8-carboxylic acid] showed an E30 of 2.44.

`CC1(C)CC(c2cccc(NC3(C(=O)O)CC3)c2)Nc2c(C(=O)O)cc(Cl)cc21` (stereo not shown) [Example-6, 2-[3-(1-Carboxy-cyclopropylamino)-phenyl]-6-chloro-4,4-dimethyl-1,2,3,4-tetrahydro-quinoline-8-carboxylic acid] returned an E30 of 2.72.

With `CC(C)(Nc1cccc(C2CC(C)(C)c3cc(Cl)cc(C(=O)O)c3N2)c1)C(=O)O` (stereo not shown) [Example-7, 2-[3-(1-Carboxy-1-methyl-ethylamino)-phenyl]-6-chloro-4,4-dimethyl-1,2,3,4-tetrahydro-quinoline-8-carboxylic acid], the E30 stood at 2.27.

In turn, `Cc1cc(C#N)cc2c1NC(c1cccc(NC3(C(=O)O)CC3)c1)CC2(C)C` (stereo not shown) [Example-8, 1-[3-(6-Cyano-4,4,8-trimethyl-1,2,3,4-tetrahydro-quinolin-2-yl)-phenylamino]-cyclopropanecarboxylic acid] gave an E30 of 1.68.

Consider `CC(C)(Nc1cccc(C2CC(C)(C)c3cc(C(F)(F)F)ccc3N2)c1)C(=O)O` (stereo not shown) [Example-9, 2-[3-(4,4-Dimethyl-6-trifluoromethyl-1,2,3,4-tetrahydro-quinolin-2-yl)-phenylamino]-2-methyl-propionic acid], for which the E30 worked out at 2.34.

`CC1(C)CC(c2ccccc2NS(C)(=O)=O)Nc2ccc(Cl)cc21` (stereo not shown) [Example-10, N-[2-(6-Chloro-4,4-dimethyl-1,2,3,4-tetrahydro-quinolin-2-yl)-phenyl]-methanesulfonamide] had an E30 of 1.70.

Consider `CN1c2ccc(C(F)(F)F)cc2C(C)(C)CC1c1cccc(NC(C)(C)C(=O)O)c1` (stereo not shown) [Example-11, 2-Methyl-2-[3-(1,4,4-trimethyl-6-trifluoromethyl-1,2,3,4-tetrahydro-quinolin-2-yl)-phenylamino]-propionic acid], for which the E30 came out at 2.48.

As to `Cc1cc(C#N)cc2c1NC(c1cccc(NC(C)(C)C(=O)O)c1)CC2(C)C` (stereo not shown) [Example-12, 2-[3-(6-Cyano-4,4,8-trimethyl-1,2,3,4-tetrahydro-quinolin-2-yl)-phenylamino]-2-methyl-propionic acid], the E30 stood at 2.37.

`CN1c2ccc(C(F)(F)F)cc2C(C)(C)CC1c1cccc(NC2(C(=O)O)CC2)c1` (stereo not shown) [Example-13, 1-[3-(1,4,4-Trimethyl-6-trifluoromethyl-1,2,3,4-tetrahydro-quinolin-2-yl)-phenylamino]-cyclopropanecarboxylic acid] yielded an E30 of 2.08.

`CC1(C)CC(c2ccccc2NS(=O)(=O)c2cccc(F)c2)Nc2ccc(Cl)cc21` (stereo not shown) [Example-14, N-[2-(6-Chloro-4,4-dimethyl-1,2,3,4-tetrahydro-quinolin-2-yl)-phenyl]-3-fluoro-benzenesulfonamide] gave an E30 of 1.78.

`CC(C)(Nc1cccc(C2CC(C)(C)c3cccc(C(=O)O)c3N2)c1)C(=O)O` (stereo not shown) [Example-15, 2-[3-(1-Carboxy-1-methyl-ethylamino)-phenyl]-4,4-dimethyl-1,2,3,4-tetrahydro-quinoline-8-carboxylic acid] gave an E30 of 1.88.

`CCS(=O)(=O)Nc1ccccc1C1CC(C)(C)c2cc(Cl)ccc2N1` (stereo not shown) [Example-16, Ethanesulfonic acid [2-(6-chloro-4,4-dimethyl-1,2,3,4-tetrahydro-quinolin-2-yl)-phenyl]-amide] returned an E30 of 1.89.

In turn, `CC1(C)CC(c2cccc(NC3(C(=O)O)CC3)c2)Nc2ccc(C(F)(F)F)cc21` (stereo not shown) [Example-17, 1-[3-(4,4-Dimethyl-6-trifluoromethyl-1,2,3,4-tetrahydro-quinolin-2-yl)-phenylamino]-cyclopropanecarboxylic acid] displayed an E30 of 1.91.

`CC1(C)CC(c2cccc(NC3(C(=O)O)CC3)c2)Nc2c(Cl)cc(C#N)cc21` (stereo not shown) [Example-18, 1-[3-(8-Chloro-6-cyano-4,4-dimethyl-1,2,3,4-tetrahydro-quinolin-2-yl)-phenylamino]-cyclopropanecarboxylic acid] gave an E30 of 1.79.

`CC1(C)CC(c2ccccc2NS(=O)(=O)c2ccc(F)cc2)Nc2ccc(Cl)cc21` (stereo not shown) [Example-19, N-[2-(6-Chloro-4,4-dimethyl-1,2,3,4-tetrahydro-quinolin-2-yl)-phenyl]-4-fluoro-benzenesulfonamide]: the E30 came to 1.64.

`CC(C)(Nc1ccccc1C1CC(C)(C)c2cc(C#N)ccc2N1)C(=O)O` (stereo not shown) [Example-20, 2-[2-(6-Cyano-4,4-dimethyl-1,2,3,4-tetrahydro-quinolin-2-yl)-phenylamino]-2-methyl-propionic acid] displayed an E30 of 1.57.

For `CC1(C)CC(c2ccccc2NS(=O)(=O)c2ccccc2F)Nc2ccc(Cl)cc21` (stereo not shown) [Example-21, N-[2-(6-Chloro-4,4-dimethyl-1,2,3,4-tetrahydro-quinolin-2-yl)-phenyl]-2-fluoro-benzenesulfonamide], the E30 stood at 1.75.

The molecule `CC1(C)CC(c2ccccc2NC2(C(=O)O)CC2)Nc2ccc(Cl)cc21` (stereo not shown) [Example-22, 1-[2-(6-Chloro-4,4-dimethyl-1,2,3,4-tetrahydro-quinolin-2-yl)-phenylamino]-cyclopropanecarboxylic acid] returned an E30 of 1.40.

In the case of `CC1(C)CC(c2ccccc2NS(C)(=O)=O)Nc2ccc(C#N)cc21` (stereo not shown) [Example-23, N-[2-(6-Cyano-4,4-dimethyl-1,2,3,4-tetrahydro-quinolin-2-yl)-phenyl]-methanesulfonamide], the E30 came out at 1.14.

In the case of `CN1c2ccc(C#N)cc2C(C)(C)CC1c1cccc(NC(C)(C)C(=O)O)c1` (stereo not shown) [Example-24, 2-[3-(6-Cyano-1,4,4-trimethyl-1,2,3,4-tetrahydro-quinolin-2-yl)-phenylamino]-2-methyl-propionic acid], the E30 amounted to 3.22.

Molecule `CC1(C)CC(c2ccccc2NC2(C(=O)O)CC2)Nc2ccc(C#N)cc21` (stereo not shown) [Example-25, 1-[2-(6-Cyano-4,4-dimethyl-1,2,3,4-tetrahydro-quinolin-2-yl)-phenylamino]-cyclopropanecarboxylic acid] came in with an E30 of 2.02.
